{"source": "patent US20250360108A1", "about": "“CATALYTIC INHIBITOR OF PROTEIN PHOSPHATASE 5 ACTIVATES THE EXTRINSIC APOPTOTIC PATHWAY BY DISRUPTING COMPLEX II” (The Research Foundation for the State University of New York, priority 2022, published 2025)", "key": {"PP2A": {"test_system": "PP2A", "assay": "Biotin-P5 / biotin-P13 pulldown in 786-O lysate, co-pulldown of PP2A", "type": "binding, human", "settings": "cell lysate, 1 μM"}, "PP5-FLAG": {"target": "T1, PP5-FLAG (Homo sapiens, UniProt P53041)", "T1 construct": "expressed in transfected cells; host or cells: HEK293", "T1 sequence (P53041 1-499)": "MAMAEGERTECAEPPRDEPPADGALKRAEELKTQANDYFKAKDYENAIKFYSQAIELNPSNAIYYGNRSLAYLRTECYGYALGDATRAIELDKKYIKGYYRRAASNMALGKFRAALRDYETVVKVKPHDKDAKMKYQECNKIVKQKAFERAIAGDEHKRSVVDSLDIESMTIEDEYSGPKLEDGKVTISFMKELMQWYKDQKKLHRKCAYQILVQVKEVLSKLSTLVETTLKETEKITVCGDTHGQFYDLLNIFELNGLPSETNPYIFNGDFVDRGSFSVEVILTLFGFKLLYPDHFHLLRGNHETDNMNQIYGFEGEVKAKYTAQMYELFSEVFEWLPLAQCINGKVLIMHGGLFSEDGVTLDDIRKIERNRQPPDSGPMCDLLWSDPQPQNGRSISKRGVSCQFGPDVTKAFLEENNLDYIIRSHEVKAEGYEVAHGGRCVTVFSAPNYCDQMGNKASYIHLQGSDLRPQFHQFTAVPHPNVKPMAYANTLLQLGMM", "assay": "Biotin-P5 and biotin-P13 pulldown from HEK293 lysate", "type": "binding", "settings": "0.01-10 μM", "procedure": "Biotin-P5 and biotin-P13 Pulldown: HEK293 cells were transiently transfected with PP5-FLAG or active site point mutants and protein lysate extracted. Lysate was incubated with 0.01-10 μM biotin-P5 or biotin P-13 as indicated at 4° C. for 1 hr then added to streptavidin-conjugated agarose and incubated at 4° C. for 1 hr. Following three washes with fresh extraction buffer bound proteins were eluted in 5× Laemmli buffer and analyzed by Western blot. […] Samples were run by SDS PAGE, transferred to nitrocellulose membrane, and analyzed by Western blot."}, "786-O cells [1]": {"test_system": "786-O cells", "assay": "Induction of apoptosis by immunoblotting of apoptotic markers", "type": "cell-based, human", "procedure": "Method Details Cell Transfection and Treatment: Cultured cells were split and then transfected the following day when about 40% confluent with each construct using Mirus TranslT-2020 (MirusBio) according to manufacturer's protocol. Cells were incubated at 37° C. and then extracted or collected for analysis after 24 hrs (HEK293) or 72 hrs (ccRCC cell lines). Short interfering RNA (siRNA) scramble control and PPP5C (PP5) targeting duplexes were purchased from OriGene (SKU: SR321403A, SR321403B, and SR321403C). Indicated cells were transiently transfected with the siRNA using Mirus TranslT-2020. For PP5 knock-down, either 30 nM of control siRNA or 10 nM of each PP5 siRNA duplex (A, B and C) were mixed prior to transfection. Cells were incubated at 37° C. for 72 hrs, then harvested for protein extraction. […] Cells were then harvested for protein extraction.\n(§1) Protein Extraction, Immunoprecipitation and Immunoblotting: Protein extraction from mammalian cells was carried out using methods previously described. Cell lysates were quantified using 1× Bradford reagent (Biorad). For immunoprecipitation, cell lysates were incubated with anti-FLAG antibody conjugated beads (Sigma) or anti-HA conjugated beads (ThermoFisher Scientific) at 4° C. for 2 hrs. Endogenous IPs were achieved by incubating lysate with anti-PP5 antibody (Cell Signaling), anti-FADD antibody (Cell Signaling), or anti-RIPK1 antibody (Cell Signaling) overnight followed by protein G agarose (Invitrogen) at 4° C. for 2 hrs. Immunopellets were washed 4 times with fresh lysis buffer (20 mM Tris-HCl (pH 7.4), 100 mM NaCl, 1 mM MgCl2, 0.1% NP40, protease inhibitor cocktail (Roche), and PhosSTOP (Roche)) and eluted in 5× Laemmli buffer. Precipitated proteins were separated by SDS-PAGE and transferred to nitrocellulose membranes. Co-immunoprecipitated proteins or proteins from cell lysate were detected with antibodies recognizing FLAG, 6×-His (ThermoFisher Scientific), GAPDH (ENZO Life Sciences), Cdc37 (StressMarq), GR, phospho-GR (S211), PP5, caspase-3, cleaved caspase-3, caspase-8, cleaved caspase-8, cleaved caspase-7, cleaved-PARP, phospho-RIPK1 (S166), phospho-FADD (S194), PP2A-C, VHL (Cell Signaling), phospho-RIPK1 (S161) (Invitrogen), PP5 and phospho-Cdc37 (S13) (Abcam). Secondary antibodies raised against mouse and rabbit (Cell Signaling) were used (See Key Resources Table)."}, "Hsp90": {"test_system": "Hsp90", "assay": "Time course with Hsp90 inhibitor SNX-2112, protein levels by immunoblot", "type": "cell-based, human", "settings": "HEK293 cells, 2 μM", "procedure": "Since a vast majority of PP5 substrates are also clients of the molecular chaperone Hsp90, we asked whether RIPK1 and FADD are clients of this chaperone. We therefore performed a time course assay using the Hsp90 inhibitor SNX-2112 (2 μM) in HEK293 cells. […] To further understand the relationship between FADD and Hsp90, we immunoprecipitated endogenous FADD from 786-O cells and examined the co-IP of Hsp90 (FIG. 4G).\nas §1"}, "PP5": {"test_system": "PP5", "assay": "PP5 inhibition in cells by immunoblotting of PP5 substrates phospho-S211-GR and phospho-S13-Cdc37", "type": "cell-based, human", "settings": "786-O cells, indicated amounts, 24 hrs", "procedure": "as §1, with “Secondary antibodies raised against mouse and rabbit (Cell Signaling) were used (See Key Resources Table).” left out"}, "recombinant PP5-His6": {"target": "T2, recombinant PP5-His6 (Homo sapiens, UniProt P53041)", "T2 construct": "GST (N, cleaved yes); made in house", "T2 sequence (P53041 1-499)": "T1 sequence (P53041 1-499)", "assay": "PP5 Phosphatase Activity and Inhibition Assay (PiPer phosphate release, phospho-S211-GR peptide)", "type": "biochemical", "settings": "phospho-S211-GR peptide substrate", "protocol": "PP5 inhibitors specifically bind to the phosphatase-catalytic domain: We next sought to measure the inhibition of PP5 activity in vitro with P5 and P13.\nBacterial Expression and Protein Purification of PP5: Human PPP5c was cloned into pGEX6P1 with an N-terminal GST tag and C-terminal His6 tag. Transformed cells were grown at 37° C. in LB with 100 mg/L ampicillin until OD600=0.6 and induced with 1 mM IPTG. Cells were harvested by centrifugation and lysed by sonication in lysis buffer (50 mM Hepes (pH 8.0), 150 mM NaCl, 0.5 mM TCEP and EDTA-free protease inhibitor cocktail tablet (Roche)). Lysate was incubated with talon resin (Takara Bio) for 1 hr at 4° C. The resin was washed three times with lysis buffer and PP5 was eluted with lysis buffer containing 250 mM imidazole. Precision protease was added to the elution overnight to cleave the GST tag and the sample was then mixed with Glutathione Sepharose resin (Cytiva) to remove the free GST and un-cleaved protein. The sample was applied to a Superdex S75 16/60 size exclusion column (GE Healthcare) and eluted in 100 mM NaCl, 20 mM Hepes pH 8, 02 mM TCEP.\nPP5 Phosphatase Activity and Inhibition Assay: The phosphatase activity of the recombinant PP5-His6 was measured using the PiPer™ Phosphate Assay Kit (Thermo Fisher Scientific) as described in the manufacturer's protocol. Standard curve with linear fit line was created from 0-1 nM Pifinal concentration reactions. 1 nM of PP5-His6 was added to each reaction with indicated amounts of custom synthesized substrate phospho-S211-glucocorticoid receptor (PhosS211-GR) peptide (see Key Resources Table) as specific substrate (Thermo Fisher Scientific). Reactions were run in triplicate and incubated at 37° C. for over 10 min. […] Enzyme kinetics were calculated and plotted using Lineweaver Burk plot and web-based tool (https://www.aatbio.com/tools/ic50-calculator) for calculating IC50 and (https://bioinfo-abcc.ncifcrf.gov/IC50_Ki_Converter/index.php) for converting IC50 to Ki values for inhibitors of enzyme activity and ligand binding."}, "786-O cells [2]": {"test_system": "786-O cells", "assay": "Cell viability / proliferation MTT assay", "type": "cell-based, human", "settings": "varying doses, 48 hrs", "procedure": "Cell Viability Assay: Renal cancer cell lines 786-O, Caki-2, Caki-1, and A498 as well as the normal renal cell line HK-2 were plated at 10,000 cells per well in 96-well plates. […] After 24 or 48 hrs, cell viability assay was performed using the Quick Cell Proliferation Kit Plus (BioVision) according to the manufacturer's protocol. The absorbance at 450 nm was measured on a Tecan Infinite M200 Pro and proliferation rate was calculated."}}, "note": "Residues, ends and D or L forms follow the SMILES beside them. *: point of attachment. Cbz = O=C(OCc1ccccc1)*; CH2F = FC*"}
{"smiles": "Cc1noc(C)c1S(=O)(=O)Nc1cccc(C(=O)N2CCN(C(=O)CCC[C@@H]3SC[C@@H]4NC(=O)N[C@@H]43)CC2)c1", "note": "[biotin-P5, N-[3-(4-(4-[(3aS,4S,6aR)-2-Oxo-hexahydro-1H-thieno[3,4-d]imidazol-4-yl]butanoyl)piperazine-1-carbonyl)phenyl]-3,5-dimethyl-1,2-oxazole-4-sulfonamide]", "values": [{"measurement": "binding to PP2A", "setting": "PP2A", "value": "did not bind"}, {"measurement": "binding of PP5-FLAG to biotinylated compound (streptavidin pulldown)", "setting": "PP5-FLAG", "value": "binds"}]}
{"smiles": "CCCCN(c1ccc(Oc2ccccc2)cc1)S(=O)(=O)c1c(C)noc1C", "note": "[Compound P058, N-Butyl(3,5-dimethyl-4-isoxazolylsulfonyl)(p-phenoxyphenyl)amine]", "values": [{"measurement": "induction of apoptosis (cleaved PARP, cleaved caspase 8)", "setting": "786-O cells [1]; 10 μM, 24 hrs", "value": "had the ability to induce apoptosis"}]}
{"smiles": "Cc1noc(C)c1S(=O)(=O)N(CCCC#N)c1ccc(Oc2ccccc2)cc1", "note": "[Compound P075, 4-[(3,5-Dimethyl-4-isoxazolylsulfonyl)(p-phenoxyphenyl)amino]butyronitrile]", "values": [{"measurement": "induction of apoptosis (cleaved PARP, cleaved caspase 8)", "setting": "786-O cells [1]; 10 μM, 24 hrs", "value": "had the ability to induce apoptosis"}]}
{"smiles": "CC1(C)CC(=O)c2c(C(F)(F)F)nn(-c3ccc(C(N)=O)c(N[C@H]4CC[C@H](O)CC4)c3)c2C1", "note": "[SNX-2112]", "values": [{"measurement": "RIPK1 protein levels", "setting": "Hsp90; 16 hr", "value": "decreased RIPK1 protein levels"}, {"measurement": "FADD protein levels", "setting": "Hsp90; throughout time course", "value": "did not observe a decrease in FADD levels"}, {"measurement": "Hsp90 clients Tsc2, Akt and phos-Ser473-Akt protein levels", "setting": "Hsp90; time course", "value": "destabilized and degraded"}]}
{"smiles": "Cc1noc(C)c1S(=O)(=O)Nc1ccc(O)c(C(=O)O)c1", "note": "[Compound P0]", "values": [{"measurement": "phosphorylation of PP5 substrates phospho-S13-Cdc37 and phospho-S211-GR", "setting": "PP5", "value": "dose dependent increase in phosphorylation"}]}
{"smiles": "COC(=O)c1cccc(NS(=O)(=O)c2c(C)noc2C)c1", "note": "[Compound P5, Methyl m-(3,5-dimethyl-4-isoxazolylsulfonylamino)benzoate]", "values": [{"measurement": "mode of PP5 inhibition (enzyme kinetics, Lineweaver-Burk)", "setting": "recombinant PP5-His6", "value": "competitive inhibitors"}, {"measurement": "Ki", "setting": "recombinant PP5-His6; IC50 converted to Ki", "value": "277 ± 50", "unit": "nM"}, {"measurement": "cleavage of apoptotic markers caspase 3 and 8 and PARP", "setting": "786-O cells [1]; 10 μM, 24 hrs", "value": "cleavage of the apoptotic markers caspase 3 and 8 and PARP"}, {"measurement": "proliferation of 786-O cells (MTT)", "setting": "786-O cells [2]", "value": "significantly inhibited the proliferation"}]}
{"smiles": "Cc1noc(C)c1S(=O)(=O)N(CCCCl)c1ccc(Oc2ccccc2)cc1", "note": "[Compound P059, (3-Chloropropyl)(3,5-dimethyl-4-isoxazolylsulfonyl)(p-phenoxyphenyl)amine]", "values": [{"measurement": "induction of apoptosis (cleaved PARP, cleaved caspase 8)", "setting": "786-O cells [1]; 10 μM, 24 hrs", "value": "had the ability to induce apoptosis"}]}
{"smiles": "COC(=O)C[C@H](NC(=O)[C@H](C)NC(=O)[C@@H](NC(=O)OCc1ccccc1)C(C)C)C(=O)CF", "note": "[z-VAD-fmk, reference compound] (Cbz-Val-Ala-Asp(OMe)-CH2F)", "values": [{"measurement": "effect on IC261-induced apoptosis", "setting": "786-O cells [1]; 10 μM for 1 hr, then IC261 for 16 hrs", "value": "reversed this effect"}]}
